Like-named read-outs stand apart in the source and are kept apart here.
Molecular target: T1, TBK1 (Homo sapiens, UniProt Q9UHD2)
T1 sequence (Q9UHD2 1-729): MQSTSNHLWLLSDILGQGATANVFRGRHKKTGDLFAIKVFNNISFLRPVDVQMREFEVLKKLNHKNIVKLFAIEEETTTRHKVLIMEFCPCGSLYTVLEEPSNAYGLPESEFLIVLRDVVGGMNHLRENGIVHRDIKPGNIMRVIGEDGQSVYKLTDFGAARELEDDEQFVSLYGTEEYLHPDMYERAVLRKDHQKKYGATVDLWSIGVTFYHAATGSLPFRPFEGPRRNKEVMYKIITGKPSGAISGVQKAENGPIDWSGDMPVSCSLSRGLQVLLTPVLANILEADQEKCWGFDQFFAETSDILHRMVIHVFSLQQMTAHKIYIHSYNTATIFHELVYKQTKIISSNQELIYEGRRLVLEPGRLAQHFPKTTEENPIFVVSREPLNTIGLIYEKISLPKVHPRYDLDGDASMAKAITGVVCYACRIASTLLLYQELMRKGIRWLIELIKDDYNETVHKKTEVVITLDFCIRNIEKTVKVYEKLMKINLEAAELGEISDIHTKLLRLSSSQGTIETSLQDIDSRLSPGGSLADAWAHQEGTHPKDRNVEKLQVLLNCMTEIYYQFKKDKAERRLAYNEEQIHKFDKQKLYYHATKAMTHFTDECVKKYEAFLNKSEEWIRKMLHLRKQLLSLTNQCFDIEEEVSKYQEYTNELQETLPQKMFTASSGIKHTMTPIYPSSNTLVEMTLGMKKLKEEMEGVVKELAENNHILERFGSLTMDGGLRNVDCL
Experiment: FRET-based Z'-LYTE TBK1 enzymatic assay
Format: biochemical
Design: purchased Thermo Scientific A31513
Conditions: for inhibition at 0.1 µM / inhibition at 1 µM / inhibition at 10 µM / inhibition at 0.01 µM / inhibition at 0.0001 µM / inhibition at 0.001 µM / IC50: 100 µM ATP; for inhibition at 0.0001 µM: compound at 0.1 nM, read-out: TBK1 inhibition (%) 0.1 nM; for inhibition at 0.001 µM: compound at 1 nM, read-out: TBK1 inhibition (%) 1 nM; for IC50: mean of two separate experiments

[1] = read-out: TBK1 inhibition (%) 100 nM, compound at 100 nM
[2] = read-out: TBK1 inhibition (%) 1 μM, compound at 1 μM
[3] = read-out: TBK1 inhibition (%) 10 μM, compound at 10 μM
[4] = read-out: TBK1 inhibition (%) 10 nM, compound at 10 nM
[5] = compound at 10 nM, read-out: TBK1 inhibition (%) 10 nM
[6] = compound at 100 nM, read-out: TBK1 inhibition (%) 100 nM
[7] = compound at 1 μM, read-out: TBK1 inhibition (%) 1 μM
[8] = compound at 10 μM, read-out: TBK1 inhibition (%) 10 μM

| inhibition at 0.01 µM [5] [%] | inhibition at 0.1 µM [6] [%] | inhibition at 1 µM [7] [%] | IC50 [nM] | SMILES | inhibition at 0.1 µM [1] [%] | inhibition at 1 µM [2] [%] | inhibition at 10 µM [3] [%] | also measured |
| --- | --- | --- | --- | --- | --- | --- | --- | --- |
|  |  |  |  | CN1CCN(Cc2ccc(-c3cnc4[nH]nc(NCc5ccccc5)c4c3)cc2)CC1 [Compound 12a] | -14.5 | -13.6 | -8 |  |
|  |  |  |  | CN1CCN(Cc2ccc(-c3cnc4[nH]nc(NCCc5ccccc5)c4c3)cc2)CC1 [Compound 12b] | 7.3 | 5.9 | 3.2 |  |
|  |  |  |  | CN1CCN(Cc2ccc(-c3cnc4[nH]nc(NCc5ccc(Cl)cc5Cl)c4c3)cc2)CC1 [Compound 12c] | -30.1 | -6.7 | -2 |  |
|  |  |  |  | CN1CCN(Cc2ccc(-c3cnc4[nH]nc(NCCCc5ccccc5)c4c3)cc2)CC1 [Compound 12d] | -5.6 | -5.8 | -4.7 |  |
|  |  |  |  | CN1CCN(Cc2ccc(-c3cnc4[nH]nc(NCCc5ccc(F)cc5)c4c3)cc2)CC1 [Compound 12e] | -1.4 | -2.4 | -5 |  |
|  |  |  |  | COc1ccc(CCNc2n[nH]c3ncc(-c4ccc(CN5CCN(C)CC5)cc4)cc23)cc1 [Compound 12f] | -9.7 | -7.9 | -0.5 |  |
|  |  |  |  | CN1CCN(Cc2ccc(-c3cnc4[nH]nc(NCCCN5CCOCC5)c4c3)cc2)CC1 [Compound 12h] | -7.8 | -4.3 | -5.2 |  |
|  |  |  |  | CN1CCN(Cc2ccc(-c3cnc4[nH]nc(NCCCn5ccnc5)c4c3)cc2)CC1 [Compound 12i] | 15.2 | 19.9 | 7.1 | inhibition at 0.01 µM [4]: 16.2% |
|  |  |  |  | CN1CCN(Cc2ccc(-c3cnc4[nH]nc(-c5ccc6[nH]ccc6c5)c4c3)cc2)CC1 [Compound 15a] | 13.2 | 36.5 | 83 |  |
|  |  |  |  | CC(C)n1c(C(F)(F)F)nc2c(F)cc(-c3n[nH]c4ncc(-c5cccc(S(N)(=O)=O)c5)cc34)cc21 [Compound 15aa] | 36.8 | 48.3 |  | inhibition at 0.01 µM [4]: 14.1% |
| 70.9 | 72.9 | 90.3 | 3.6 | Cc1nc2c(F)cc(-c3c[nH]c4ncc(-c5ccc(S(N)(=O)=O)cc5)cc34)cc2n1C(C)C [Compound 15ab] |  |  |  | fold reduced activity against TBK1 compared to 15t (compared to 15t): 8 fold; inhibition at 0.0001 µM: 43.1%; inhibition at 0.001 µM: 60.1% |
|  |  |  |  | CN1CCN(Cc2ccc(-c3cnc4[nH]nc(-c5cccc(N)c5)c4c3)cc2)CC1 [Compound 15b] | 11 | 14.3 | 47.9 |  |
|  |  |  |  | CN1CCN(Cc2ccc(-c3cnc4[nH]nc(-c5ccc(N)cc5)c4c3)cc2)CC1 [Compound 15c] | 38.3 | 47.8 | 86.8 |  |
| 18 | 52.5 | 84.1 | 131 | CN1CCN(Cc2ccc(-c3cnc4[nH]nc(-c5ccc6[nH]cnc6c5)c4c3)cc2)CC1 [Compound 15d] |  |  |  | inhibition at 10 µM [8]: 102% |
| 14.3 | 62.8 | 104 | 75.3 | CC(C)n1cnc2ccc(-c3n[nH]c4ncc(-c5ccc(CN6CCN(C)CC6)cc5)cc34)cc21 [Compound 15e] |  |  |  | inhibition at 10 µM [8]: 108% |
|  | 28.7 | 81.4 | 290 | CN1CCN(Cc2ccc(-c3cnc4[nH]nc(-c5cccc6cnccc56)c4c3)cc2)CC1 [Compound 15f] |  |  |  | inhibition at 10 µM [8]: 101% |
| 29.9 | 91.7 | 108 | 26 | CC(C)n1cnc2ccc(-c3n[nH]c4ncc(-c5ccc(C(=O)N6CCN(C)CC6)cc5)cc34)cc21 [Compound 15g] |  |  |  | inhibition at 0.001 µM: 8.6%; inhibition at 10 µM [8]: 108% |

| inhibition at 0.01 µM [5] [%] | inhibition at 0.1 µM [6] [%] | inhibition at 1 µM [7] [%] | IC50 [nM] | SMILES | inhibition at 0.1 µM [1] [%] | inhibition at 1 µM [2] [%] | inhibition at 10 µM [3] [%] | also measured |
| --- | --- | --- | --- | --- | --- | --- | --- | --- |
| 29.1 | 75.6 | 104 | 58.9 | CC(C)n1cnc2ccc(-c3n[nH]c4ncc(-c5ccc(C(N)=O)cc5)cc34)cc21 [Compound 15h] |  |  |  | inhibition at 0.001 µM: 24%; inhibition at 10 µM [8]: 103% |
| 62.3 | 75.4 | 105 | 8.5 | CC(C)n1cnc2ccc(-c3n[nH]c4ncc(-c5ccc(S(N)(=O)=O)cc5)cc34)cc21 [Compound 15i] |  |  |  | fold lower TBK1 IC50 than compound 15e (compared with 15e): ~10 times; inhibition at 0.001 µM: 47.3%; inhibition at 10 µM [8]: 111% |
| 31.5 | 67.1 | 104 | 67.2 | CC(=O)Nc1cc(-c2cnc3[nH]nc(-c4ccc5ncn(C(C)C)c5c4)c3c2)ccn1 [Compound 15j] |  |  |  | inhibition at 0.001 µM: 14.2%; inhibition at 10 µM [8]: 103% |
| 19.5 | 45 | 82.6 | 288 | COC(=O)c1cccc(-c2cnc3[nH]nc(-c4ccc5ncn(C(C)C)c5c4)c3c2)c1 [Compound 15k] |  |  |  | inhibition at 10 µM [8]: 106% |
|  |  |  |  | NS(=O)(=O)c1ccc(-c2cnc3[nH]nc(-c4cnn(C5CCOCC5)c4)c3c2)cc1 [Compound 15l] | -7.2 | -0.6 | 21.9 |  |
|  |  |  |  | NS(=O)(=O)c1ccc(-c2cnc3[nH]nc(-c4ccc(N5CCOCC5)cc4)c3c2)cc1 [Compound 15m] | -8.9 | -6 | -11 |  |
|  |  |  |  | NS(=O)(=O)c1ccc(-c2cnc3[nH]nc(-c4cnn(CCN5CCOCC5)c4)c3c2)cc1 [Compound 15n] | -8.9 | -15 | -12.5 |  |
|  |  |  |  | NS(=O)(=O)c1ccc(-c2cnc3[nH]nc(-c4cnn(CCO)c4)c3c2)cc1 [Compound 15o] | -2.7 | -7.4 | 23.3 |  |
|  |  |  |  | Cc1nc2c(F)cc(-c3n[nH]c4ncc(-c5ccc(S(N)(=O)=O)cc5)cc34)cc2o1 [Compound 15p] | 30.6 | 37.1 | 41.1 | inhibition at 0.01 µM [4]: 32% |
|  |  |  |  | NS(=O)(=O)c1ccc(-c2cnc3[nH]nc(-c4cc(F)c5cn[nH]c5c4)c3c2)cc1 [Compound 15q] | 12.7 | 25.5 | 83.9 | inhibition at 0.01 µM [4]: 4.5% |
|  |  |  |  | Cc1nc2cc(-c3n[nH]c4ncc(-c5ccc(S(N)(=O)=O)cc5)cc34)cc(F)c2o1 [Compound 15r] | 10.8 | 5.7 | 56.8 | inhibition at 0.01 µM [4]: -2.6% |
| 68.6 | 76.9 | 97.2 | 6.2 | Cc1nc2ccc(-c3n[nH]c4ncc(-c5ccc(S(N)(=O)=O)cc5)cc34)cc2n1C(C)C [Compound 15s] |  |  |  | inhibition at 0.001 µM: 45.5% |
| 78 | 79.5 | 99.1 | 0.8 | Cc1nc2c(F)cc(-c3n[nH]c4ncc(-c5ccc(S(N)(=O)=O)cc5)cc34)cc2n1C(C)C [Compound 15t] |  |  |  | fold increase of TBK1 activity compared with compound 15i (compared with 15i): 10 times; inhibition at 0.0001 µM: 43.1%; inhibition at 0.001 µM: 61.6% |
| 30 | 78.1 | 89.6 | 33.3 | CCn1cnc2ccc(-c3n[nH]c4ncc(-c5ccc(S(N)(=O)=O)cc5)cc34)cc21 [Compound 15u] |  |  |  | inhibition at 0.0001 µM: 12.1%; inhibition at 0.001 µM: 25.1% |
| 49.7 | 70.3 | 87.4 | 31.2 | Cc1nc2c(F)cc(-c3n[nH]c4ncc(-c5ccc(S(N)(=O)=O)cc5)cc34)cc2n1C1CC1 [Compound 15v] |  |  |  | inhibition at 0.0001 µM: 37.7%; inhibition at 0.001 µM: 42.5% |
|  |  |  |  | CC(C)n1c(C(F)(F)F)nc2c(F)cc(-c3n[nH]c4ncc(-c5ccc(S(N)(=O)=O)cc5)cc34)cc21 [Compound 15w] | 27.1 |  |  | TBK1 inhibitory activity (in words): almost lost TBK1 activity; inhibition at 0.01 µM [4]: 10.7% |
| 34.1 | 80.5 | 75.8 | 22 | Cc1nc2c(F)cc(-c3n[nH]c4ncc(-c5ccc(CN6CCN(C)CC6)cc5)cc34)cc2n1C(C)C [Compound 15x] |  |  |  | inhibition at 0.001 µM: 18.6% |

— PMC9132415, “Identification of 1H-pyrazolo[3,4-b]pyridine derivatives as novel and potent TBK1 inhibitors: design, synthesis, biological evaluation, and molecular docking study” (Journal of Enzyme Inhibition and Medicinal Chemistry, 2022)
